Results as given in paper PMC8358040, “The enzymatic activity of inositol hexakisphosphate kinase controls circulating phosphate in mammals” (Nature Communications, 2021).
Where “and” joins values, the source holds several entries; their conditions need not be identical. Equal entries are not always repeated. Values belong to the molecule of their own block, whether it stands above or below them.

How the values were obtained:
[1] = tested on: phosphate excretion in faeces; assay: Cumulative 32P activity in faeces of rats administered NaH2 32PO4; assay type: in vivo, rat; details: for Cumulative 32P activity in the faeces: lanthanum carbonate 1000 mg/kg 7th dose
Experimental: (§1) The experiment was performed using 8-week-old SD rats (CLEA Japan, Inc.). Male rats were randomly sorted into different groups based on their body weight (n = 5). […] After a 1 h treatment, NaH2^32PO4 solution (11 μCi/2 mL/rat) was administered orally. Following NaH2^32PO4 administration, rats were placed in metabolic cages, and faeces and urine were collected up to 72 h later. The compound was administered once a day during the 72 h experiment. […] The radioactivity (%) in the faecal and urine samples was calculated by setting the radioactivity of the administered NaH2^32PO4 to 100 %.

[2] = tested on: phosphate excretion in urine; assay: Cumulative 32P activity in urine of rats administered NaH2 32PO4; assay type: in vivo, rat; details: lanthanum carbonate 1000 mg/kg 7th dose
Experimental: as §1

human IP6K1 = biological target: T1, human IP6K1 (Homo sapiens, UniProt Q92551); assay: ADP-Glo kinase assay for IP6K activity; assay type: biochemical; details: recombinant human IP6K1 15 nM, ATP 15 μM, InsP6 50 μM, 2 h; mean ± S.D.
T1 construct: made in house; host or cells: Sf9 insect cells (baculovirus)

human IP6K2 = biological target: T2, human IP6K2 (Homo sapiens, UniProt Q9UHH9); assay: ADP-Glo kinase assay for IP6K activity; details: read-out: IC50 IP6K2; recombinant human IP6K2 12 nM, ATP 15 μM, InsP6 50 μM, 2 h; mean ± S.D.
T2 sequence (Q9UHH9 1-426): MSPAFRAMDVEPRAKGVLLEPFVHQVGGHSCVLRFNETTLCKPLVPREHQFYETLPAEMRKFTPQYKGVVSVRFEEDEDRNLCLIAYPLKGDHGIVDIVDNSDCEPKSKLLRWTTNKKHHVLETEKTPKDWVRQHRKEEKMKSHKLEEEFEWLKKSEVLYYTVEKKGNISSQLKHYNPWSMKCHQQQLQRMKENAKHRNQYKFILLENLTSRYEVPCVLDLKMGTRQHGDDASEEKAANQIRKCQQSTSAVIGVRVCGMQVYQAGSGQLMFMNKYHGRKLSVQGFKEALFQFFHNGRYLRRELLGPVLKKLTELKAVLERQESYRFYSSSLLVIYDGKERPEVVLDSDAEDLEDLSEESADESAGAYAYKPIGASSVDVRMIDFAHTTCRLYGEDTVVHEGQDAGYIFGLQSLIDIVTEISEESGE

human IP6K3 = biological target: T3, human IP6K3 (Homo sapiens, UniProt Q96PC2); assay: ADP-Glo kinase assay for IP6K activity; details: read-out: IC50 IP6K3; recombinant human IP6K3 […], ATP 15 μM, InsP6 50 μM, 2 h; mean ± S.D.
T3 sequence (Q96PC2 1-410): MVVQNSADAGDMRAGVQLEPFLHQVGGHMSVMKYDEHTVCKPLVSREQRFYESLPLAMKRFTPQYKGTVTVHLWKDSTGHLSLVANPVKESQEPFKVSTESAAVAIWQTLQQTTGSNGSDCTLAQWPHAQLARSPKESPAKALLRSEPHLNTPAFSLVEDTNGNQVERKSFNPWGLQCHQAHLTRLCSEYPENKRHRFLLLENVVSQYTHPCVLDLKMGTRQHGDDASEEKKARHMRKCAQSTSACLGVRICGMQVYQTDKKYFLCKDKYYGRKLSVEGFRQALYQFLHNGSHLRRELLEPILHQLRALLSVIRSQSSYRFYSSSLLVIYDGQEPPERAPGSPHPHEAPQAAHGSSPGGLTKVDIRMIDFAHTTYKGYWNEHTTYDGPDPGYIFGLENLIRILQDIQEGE

[3] = Plasma concentration of SC-919, single-dose study in normal rats; assay type: in vivo, rat
Experimental: The experiment was performed with 8-week-old male SD rats (CLEA Japan, Inc.). […] The concentration of the compound in the plasma was measured at the same timepoints (n = 3).

[4] = Plasma concentration of SC-919, single-dose study in normal monkeys; assay type: in vivo, cynomolgus monkey; details: 0.3 mg/kg oral, time 1, individual animals (Fig3c)
Experimental: The experiments were performed at Hamamatsu Pharma Research, Inc. (Hamamatsu, Shizuoka, Japan), which is accredited by the American Association for Accreditation of Laboratory Animal Care. Male cynomolgus monkeys were housed in a room with controlled temperature, humidity, and lighting (12 h light/dark cycle). All monkeys were fed a regular diet (100 g/day, PS-A, Oriental Yeast Co., Ltd.) and had free access to tap water. The experiments were performed when the animals were 3–4 years old. The monkeys were randomized into different groups based on plasma phosphate, body weight (2.6–4.7 kg), and age (n = 6). Corn oil (FUJIFILM Wako) was used as a vehicle. […] Blood was collected from the cephalic vein, saphenous vein, or the femoral vein using a disposable syringe and needle at the indicated timepoints for the measurement of phosphate levels in the plasma. The concentration of the compound in the plasma was measured at the same timepoints (n = 6).

[5] = Plasma concentration of SC-919 in adenine-treated rats (sub-chronic dose study)
[6] = Plasma concentration of SC-919 in bilaterally nephrectomized rats; assay type: in vivo, rat; details: bilaterally nephrectomised rats, 0.3 mg/kg oral, 5 h, individual animals (Fig4e)
Experimental: The experiment was performed with 9-week-old male SD rats (CLEA Japan, Inc.). For bilateral nephrectomy, rats were fasted for 16 h and were subcutaneously injected with buprenorphine (0.05 mg/kg, Otsuka). Thirty minutes later, the rats were anesthetized using isoflurane (3% v/v) and kept on thermal pads at 37 °C with isoflurane (2% v/v). The left and right abdomen and the neck were shaved with a clipper. The surgical site was disinfected with a chlorhexidine-containing antiseptic solution, and the aesthetic state was confirmed by the disappearance of the pain reflex. The skin was incised to expose the kidney, and the renal artery and vein were ligated, which was followed by the isolation of the kidney. […] A sham operation group (n = 6), without nephrectomy, was prepared following the same procedure. After completion of the operation, meloxicam (1 mg/kg) was subcutaneously administered once a day during the study. One day after the operation, anaesthesia was introduced using the procedure described above, and blood was collected from the jugular vein.

T1 sequence (Q92551 whole entry): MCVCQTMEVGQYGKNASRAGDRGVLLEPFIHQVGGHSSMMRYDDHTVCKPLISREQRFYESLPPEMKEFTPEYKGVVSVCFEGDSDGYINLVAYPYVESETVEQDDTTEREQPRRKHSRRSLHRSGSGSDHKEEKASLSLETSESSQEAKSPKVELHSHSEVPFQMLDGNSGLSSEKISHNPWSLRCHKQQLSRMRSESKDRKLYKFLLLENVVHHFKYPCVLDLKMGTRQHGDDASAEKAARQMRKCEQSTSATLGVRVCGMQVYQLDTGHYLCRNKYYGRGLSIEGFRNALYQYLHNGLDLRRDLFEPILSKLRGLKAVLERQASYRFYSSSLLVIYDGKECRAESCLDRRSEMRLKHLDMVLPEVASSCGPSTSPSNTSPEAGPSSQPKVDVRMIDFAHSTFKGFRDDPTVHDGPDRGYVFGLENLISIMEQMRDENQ

Compound: O=C([O-])[O-].O=C([O-])[O-].O=C([O-])[O-].[La+3].[La+3] [Lanthanum carbonate]
32P activity / phosphate excretion in faeces vs vehicle ([1]; in words): increased
Cumulative 32P activity in the faeces ([1]; 48 h (Fig3f)): 53.2569% and 73.3985% and 64.9027% and 66.783% and 73.7253%
Cumulative 32P activity in the faeces ([1]; 72 h (Fig3f)): 53.7862% and 74.2778% and 65.7229% and 68.7476% and 74.3353%
Cumulative 32P activity in the urine ([2]; 8 h (Fig3g)): 0.04647% and 0.2136% and 1.254% and 0.632% and 0.6628%
Cumulative 32P activity in the urine ([2]; 24 h (Fig3g)): 0.658% and 2.356% and 3.626% and 2.673% and 3.04%
Cumulative 32P activity in the urine ([2]; 48 h (Fig3g)): 0.8554% and 3.259% and 4.427% and 3.818% and 3.918%
Cumulative 32P activity in the urine ([2]; 72 h (Fig3g)): 1.078% and 3.901% and 5.067% and 4.576% and 4.362%

Compound: O=[N+]([O-])c1ccc(CNc2nc(NCc3cccc(C(F)(F)F)c3)nc3nc[nH]c23)cc1 [TNP, N2-(m-(trifluoromethyl)benzyl) N6-(p-nitrobenzyl)purine]
IC50 (human IP6K1): 270 ± 100 nM
IC50 (human IP6K2): 850 ± 330 nM
IC50 (human IP6K3): 260 ± 21 nM

Free SC-919 levels ([3]; animal studies using rats and monkeys, reviewer response): below 0.05 μM
Plasma concentration of SC-919 ([3]; normal rats, 1 mg/kg oral, time 1, individual animals (Fig3a), 1 mg/kg): 1942.907 and 1856.710 and 1476.530
Plasma concentration of SC-919 ([3]; normal rats, 1 mg/kg oral, time 2 (Fig3a), 1 mg/kg): 2011.947 and 2121.932 and 1778.126
Plasma concentration of SC-919 ([3]; normal rats, 1 mg/kg oral, time 4 (Fig3a), 1 mg/kg): 2195.083 and 2444.564 and 1949.961
Plasma concentration of SC-919 ([3]; normal rats, 1 mg/kg oral, time 8 (Fig3a), 1 mg/kg): 1948.434 and 2469.995 and 1783.145
Plasma concentration of SC-919 ([3]; normal rats, 3 mg/kg oral, time 1 (Fig3a), 3 mg/kg): 4153.987 and 3662.163 and 4004.199
Plasma concentration of SC-919 ([3]; normal rats, 3 mg/kg oral, time 2 (Fig3a), 3 mg/kg): 5074.332 and 4401.713 and 4372.837
Plasma concentration of SC-919 ([3]; normal rats, 3 mg/kg oral, time 4 (Fig3a), 3 mg/kg): 5790.125 and 5489.252 and 5879.739
Plasma concentration of SC-919 ([3]; normal rats, 3 mg/kg oral, time 8 (Fig3a), 3 mg/kg): 6166.814 and 6363.863 and 4651.047
Plasma concentration of SC-919 ([3]; normal rats, 10 mg/kg oral, time 1 (Fig3a), 10 mg/kg): 11886.470 and 10328.550 and 8429.354
Plasma concentration of SC-919 ([3]; normal rats, 10 mg/kg oral, time 2 (Fig3a), 10 mg/kg): 13647.120 and 11744.460 and 11378.370
Plasma concentration of SC-919 ([3]; normal rats, 10 mg/kg oral, time 4 (Fig3a), 10 mg/kg): 14060.780 and 13051.160 and 10832.720
Plasma concentration of SC-919 ([3]; normal rats, 10 mg/kg oral, time 8 (Fig3a), 10 mg/kg): 14559.520 and 13008.450 and 10214.420
Plasma concentration of SC-919 ([3]; normal rats, 10 mg/kg oral, time 24 (Fig3a), 10 mg/kg): 14337.480 and 9820.569 and 8024.378
Plasma SC-919 concentrations ([3]; normal rats, oral administration, in words): increased in a dose-dependent manner
Concentration of SC-919 (plasma) ([5]; 1 mg/kg oral, initial dose, time 2, individual animals (Fig4a), 1 mg/kg): 928.621 and 807.664 and 876.622
Concentration of SC-919 (plasma) ([5]; 1 mg/kg, initial dose, time 6 (Fig4a)): 850.061 and 949.996 and 720.403
Concentration of SC-919 (plasma) ([5]; 1 mg/kg, seventh dose, time 2 (Fig4c)): 2909.926 and 3195.472 and 1783.864
Concentration of SC-919 (plasma) ([5]; 1 mg/kg, seventh dose, time 6 (Fig4c)): 2957.483 and 3182.718 and 1810.036
Concentration of SC-919 (plasma) ([5]; 1 mg/kg, seventh dose, time 24 (Fig4c)): 2238.331 and 2202.619 and 1356.448
Concentration of SC-919 (plasma) ([5]; 10 mg/kg, initial dose, time 2 (Fig4a)): 5701.725 and 5986.890 and 6856.247
Concentration of SC-919 (plasma) ([5]; 10 mg/kg, initial dose, time 6 (Fig4a)): 4444.794 and 6665.965 and 6592.043
Concentration of SC-919 (plasma) ([5]; 10 mg/kg, initial dose, time 24 (Fig4a)): 2595.707 and 5143.151 and 4143.702
Concentration of SC-919 (plasma) ([5]; 10 mg/kg, seventh dose, time 2 (Fig4c)): 8573.125 and 12574.890 and 8591.283
Concentration of SC-919 (plasma) ([5]; 10 mg/kg, seventh dose, time 6 (Fig4c)): 7820.236 and 14817.670 and 9035.189
Compound: O=C(O)c1ccc2c(c1)[C@]1(CC[C@H](Oc3ncc(Cl)cc3Cl)CC1)C(=O)N2 [SC-919]
Concentration of SC-919 in plasma [4]: 40.468 and 0.000 and 7.073 and 24.376 and 2.454 and 13.910
Concentration of SC-919 (plasma) [6]: 541.632 and 264.446 and 202.061 and 200.786 and 379.989 and 301.737 and 410.34
